Results reported in patent publication US20020115623A1, “Saponin derivatives useful for inhibiting sialyltransferase and biosynthesis of sialoglycoconjugate” (Shui-Tein Chen, priority 2000, published 2002).

What was measured:
α2,6-sialyltransferase = biological target: T1, α2,6-sialyltransferase (Gallus gallus, UniProt Q92183); assay: Assay of α2,6-sialyltransferase activity; type: biochemical; details: concentration of inhibitor in assay 20 μM
T1 construct: made in house
Procedure: (§1) α2,3-Sialyltransferases were prepared by the procedures as described by Tsuji et al, Eur J Biochem., 1993, 216(2), 377-85. The suspension of enzyme-bound beads in 250 mM sodium cacodylate buffer (pH 6.4), 25 mM MgCl2, 5 mM CaCl2 was mixed with a Vortex mixer. Then, 4 μl of the enzyme suspension (1×10^−6 Units) was pipetted using a Gilson P-20 pipetter immediately after mixing. The enzyme was then premixed with 4 μl of inhibitors (75 μM) or water (as control) at 25° C. for 5 min. Then, the substrates, 1 μl of CMP-[14C]NeuAc (40 nCi/μl) and 1 μl of Galα1,3GalNAc-Obzl (0.1 mM), were added to the pre-incubated enzyme-inhibitor mixture and incubated at 37° C. for 3 h. The final concentrations of sodium cacodylate, MgCl2, CaCl2, and Galα1,3GalNAc-OBzl in the reaction mixture were 100 mM, 10 mM, 2 mM, and […], respectively. The solution was placed in the ice to stop the reaction. The resulting reaction products were immediately analyzed by silica gel 60 HPTLC plate (Merck, Germany) with a solvent system of ethanol/pyridine/n-butanol/acetate/water (100:10:10:3:30). The radioactivity of the corresponding product and total radioactivity were detected and quantified with a BAS 1500 radio-image analyzer (Fuji Film, Japan).
α2,6-Sialyltransferases were prepared by the procedures as described by Tsuji et al, J Biol Chem., 1994, 269(2), 1402-9. The assay procedures for α2,6-Sialyltransferases were the same as those for α2,3-Sialyltransferases, except that 1 μl of Galα1,3GalNAc-Obzl (0.1 mM) was replaced by 1 μl of fetuin (1 μg/μl).

α2,3-sialyltransferase = biological target: T2, α2,3-sialyltransferase (Mus musculus, UniProt P54751); assay: Assay of α2,3-sialyltransferase activity; type: biochemical; details: for Percentage of inhibition (%): concentration of inhibitor in assay 30 μM
T2 construct: made in house
T2 sequence (P54751 1-337): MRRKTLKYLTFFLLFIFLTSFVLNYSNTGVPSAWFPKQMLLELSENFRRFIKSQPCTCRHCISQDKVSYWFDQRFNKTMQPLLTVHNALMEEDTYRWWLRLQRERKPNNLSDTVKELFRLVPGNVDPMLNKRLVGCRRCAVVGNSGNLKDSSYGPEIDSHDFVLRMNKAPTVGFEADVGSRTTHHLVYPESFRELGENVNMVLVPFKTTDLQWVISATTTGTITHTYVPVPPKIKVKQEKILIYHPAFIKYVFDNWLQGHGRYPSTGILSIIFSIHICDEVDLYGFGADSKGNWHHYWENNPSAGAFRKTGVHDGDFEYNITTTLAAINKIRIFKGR
Procedure: as §1

β-galactosidase = assay: β-Galactosidase assay; type: biochemical; set-up: Relative Activity (%): dose or concentration left out as unconfirmed
Procedure: […] The resulting solution was incubated at 37° C. for 30 min. The resulting products were detected through the same procedures as those for sialidase assay.

α-mannosidase = assay: α-Mannosidase assay; type: biochemical; set-up: Relative Activity (%): dose or concentration left out as unconfirmed
Procedure: The α-mannosidase (10 mU/90 μl, Sigma) in 500 mM sodium phosphate buffer (pH 4.5) was mixed with 10 μl inhibitor (5 mM) or water, 100 μl 4-methylumbelliferyl-[…]-mannopyranoside (0.2 mM). The resulting solution was incubated at 37° C. for 30 min. The resulting products were detected through the same procedures as those for sialidase assay.

[1] = tested on: human hepatoma HepG2 cells; assay: Growth inhibition of HepG2 cells; type: cell-based; details: FIG. 3
Procedure: (§2) Human breast cancer cell MCF7 and hepatoma cell HepG2 were incubated in 5% CO2 incubator at 37° C. with the MEM (Eagle) medium with Earle's Bss supplemented with 2 mM glutamine, 1.5 g/l sodium bicarbonate, 0.1 mM non-essential amino acids, 1.0 mM sodium pyruvate, 100 units/ml penicillin, 100 μg/ml streptomycin and 2.5 μg/ml amphotericin B and with 10% fetal bovine serum. The cells were transferred weekly to 0.025% trypsin in 0.53 mM EDTA in Ca^2+Mg^2+-free PBS. The cells were incubated in the culture medium with 2.5% fetal bovine serum in the presence of a different concentration (5, 25, 50 and 100 μM, respectively) of the inhibitor in a 5% CO2 incubator at 37° C. for three days.

[2] = tested on: cell surface α2,6-sialoglycoconjugates on HepG2; assay: Flow cytometry (FITC-SNA) of inhibitor-treated HepG2 cells; type: cell-based, human; details: for Cell surface α2,6-sialoglycoconjugates (%) on HepG2: three days, FITC-SNA stain, control 100
Procedure: as §2, with “PBS.” for “PBS. The cells were incubated in the culture medium with 2.5% fetal bovine serum in the presence of a different concentration (5, 25, 50 and 100 μM, respectively) of the inhibitor in a 5% CO2 incubator at 37° C. for three days.”
(§3) The cells were incubated in the culture medium with 2.5% fetal bovine serum in the presence of a different concentration (5, 25, 50 and 100 μM, respectively) of the inhibitor in a 5% CO2 incubator at 37° C. for three days.
(§4) Fluorescein isothiocyanate labeled Maackia amurensis agglutinin (MAA) and Sambucus nigra agglutinin (SNA), which recognize the oligosaccharide species NeuAcα2,3-Gal-R and NeuAcα2,6-R, respectively, were purchased from Vector Labs Inc. (Burlingame, Calif.). Cells (control and inhibitor-treated). The cells scraped from dishes with a rubber policeman were washed with PBS and stained with fluorescein isothiocyanate labeled MAA and SNA, respectively, in binding buffer (10 mM HEPES, 0.15 M NaCl, pH 7.5) at 4° C. for 1 h. After centrifugation, cells were washed three times with PBS and fixed with 1% paraformaldehyde. The fluorescence intensity was measured with a FACScan flow cytometry (Becton Dickinson, Mountain View, Calif.).

[3] = tested on: human breast cancer MCF7 cells; assay: Growth inhibition of MCF7 cells; type: cell-based; details: FIG. 2
Procedure: as §2

fucosyltransferase = assay: Fucosyltransferase assay; type: biochemical; details: FIG. 1
Procedure: The fucosyltransferase (1 mU/10 μl, Calbiochem) in 100 mM Tris-HCl buffer (pH 7.5) and 40 mM MnCl2 was mixed with 4 μl inhibitor or water, 4 μl N-acetylglucosamine (1 mM) and 2 μl GDP-[^14C]fucose (20 nCi). The resulting solution was incubated at 37° C. for one hour. The reaction products were detected through the same procedures as those for sialyltransferase assay.

sialidase = assay: Sialidase assay; type: biochemical; set-up: Relative Activity (%): dose or concentration left out as unconfirmed
Procedure: The sialidase (10 mU/90 μl, sigma) in 500 mM sodium phosphate buffer (pH 4.5) was mixed with 10 μl inhibitor (5 mM) or water, 100 μl 4-methylumbelliferyl-[…]-acetylneuraminic acid (0.2 mM, sigma). The resulting solution was incubated at 37° C. for 30 min. The solution was added 1 ml quenching buffer (0.133 M glycine-NaOH, pH 10.7, 60 mM NaCl and 41.5 mM Na2CO3) to stop the reaction. The fluorescence intensity of the resulting solution was measured by fluorescence spectrophotometer at 360 nm excitation and at 440 nm emission.

[4] = tested on: cell surface α2,3-sialoglycoconjugates on MCF7; assay: Flow cytometry (FITC-MAA) of inhibitor-treated MCF7 cells; type: cell-based, human; details: for Cell surface α2,3-sialoglycoconjugates (%) on MCF7: three days, FITC-MAA stain, control 100
Procedure: as §2, with “PBS.” for “PBS. The cells were incubated in the culture medium with 2.5% fetal bovine serum in the presence of a different concentration (5, 25, 50 and 100 μM, respectively) of the inhibitor in a 5% CO2 incubator at 37° C. for three days.”
as §3, §4

T1 sequence (Q92183 whole entry): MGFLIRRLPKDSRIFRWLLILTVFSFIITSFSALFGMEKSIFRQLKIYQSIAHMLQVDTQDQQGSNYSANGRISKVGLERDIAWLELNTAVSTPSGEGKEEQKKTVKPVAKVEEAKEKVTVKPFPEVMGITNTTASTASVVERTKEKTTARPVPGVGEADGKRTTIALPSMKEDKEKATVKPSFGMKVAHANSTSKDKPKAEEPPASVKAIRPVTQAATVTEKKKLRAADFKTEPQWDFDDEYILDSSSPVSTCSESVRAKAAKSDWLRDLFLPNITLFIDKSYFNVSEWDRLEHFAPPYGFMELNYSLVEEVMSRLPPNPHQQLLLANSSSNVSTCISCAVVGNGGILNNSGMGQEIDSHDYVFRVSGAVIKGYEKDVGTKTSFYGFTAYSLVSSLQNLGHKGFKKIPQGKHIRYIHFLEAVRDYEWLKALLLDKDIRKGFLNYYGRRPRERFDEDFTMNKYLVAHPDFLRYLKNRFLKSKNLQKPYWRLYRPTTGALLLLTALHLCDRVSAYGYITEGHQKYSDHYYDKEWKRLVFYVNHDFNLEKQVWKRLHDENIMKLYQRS

## soyasaponin I-Me
α2,6-sialyltransferase
  Percentage of inhibition (%): 32.2%
α2,3-sialyltransferase
  Percentage of inhibition (%): 63.8%

## CC1(C)CC(O)C2(C)CCC3(C)C(=CCC4C5(C)CCC(OC6OC(C(=O)O)C(O)C(O)C6OC6OC(CO)C(O)C(O)C6OC6OC(CO)C(O)C(O)C6O)C(C)(CO)C5CCC43C)C2C1 (centres unmarked) [soyasaponin V]
α2,6-sialyltransferase
  Percentage of inhibition (%): 32.9%
α2,3-sialyltransferase
  Percentage of inhibition (%): 79.6%

## CC1(C)C[C@@H](O)[C@]2(C)CC[C@]3(C)C(=CC[C@@H]4[C@@]5(C)CC[C@H](O[C@@H]6O[C@H](C(=O)O)[C@@H](O)[C@H](O)[C@H]6O[C@@H]6O[C@H](CO)[C@H](O)[C@H](O)[C@H]6O)[C@](C)(CO)[C@@H]5CC[C@]43C)[C@@H]2C1 [soyasaponin III]
α2,6-sialyltransferase
  Percentage of inhibition (%): 23.1%
α2,3-sialyltransferase
  Percentage of inhibition (%): 61.5%

## C[C@@H]1O[C@@H](O[C@H]2[C@H](O[C@H]3[C@H](O[C@H]4CC[C@@]5(C)[C@@H](CC[C@]6(C)[C@@H]5CC=C5[C@@H]7CC(C)(C)C[C@@H](O)[C@]7(C)CC[C@]56C)[C@@]4(C)CO)O[C@H](C(=O)O)[C@@H](O)[C@@H]3O)OC[C@H](O)[C@@H]2O)[C@H](O)[C@H](O)[C@H]1O [soyasaponin II]
α2,6-sialyltransferase
  Percentage of inhibition (%): 64.4%
α2,3-sialyltransferase
  Percentage of inhibition (%): 93.3%

## CC1OC(OC2C(OC3C(OC4CCC5(C)C(CCC6(C)C5CC=C5C7CC(C)(C)CC(O)C7(C)CCC56C)C4(C)C)OC(C(=O)O)C(O)C3O)OC(CO)C(O)C2O)C(O)C(O)C1O (centres unmarked) [kaikasaponin III]
α2,6-sialyltransferase
  Percentage of inhibition (%): 83.2%
α2,3-sialyltransferase
  Percentage of inhibition (%): 95.5%

## C[C@@H]1O[C@@H](O[C@H]2[C@H](O[C@H]3[C@H](O[C@H]4CC[C@@]5(C)[C@@H](CC[C@]6(C)[C@@H]5CC=C5[C@@H]7CC(C)(C)C[C@@H](O)[C@]7(C)CC[C@]56C)[C@@]4(C)CO)O[C@H](C(=O)O)[C@@H](O)[C@@H]3O)O[C@H](CO)[C@H](O)[C@@H]2O)[C@H](O)[C@H](O)[C@H]1O [soyasaponin I]
α2,6-sialyltransferase
  Percentage of inhibition (%): 76.9%
β-galactosidase; Table 3
  inhibition of galactosidase (in words): did not inhibit
β-galactosidase; soyasaponin I, control 100
  Relative Activity (%): 112.0%
α2,3-sialyltransferase; FIG. 1, sialyltransferases, type not specified
  inhibition of sialyltransferases (in words): specifically inhibited
α2,3-sialyltransferase
  Percentage of inhibition (%): 89.9%
α-mannosidase; Table 3
  inhibition of mannosidase (in words): did not inhibit
α-mannosidase; soyasaponin I, control 100
  Relative Activity (%): 99.4%
[1]
  growth of human hepatoma HepG2 cells (in words): inhibited the growth
[2]; 5 μM
  Cell surface α2,6-sialoglycoconjugates (%) on HepG2: 96.5%
[2]; 25 μM
  Cell surface α2,6-sialoglycoconjugates (%) on HepG2: 85.1%
[2]; 50 μM
  Cell surface α2,6-sialoglycoconjugates (%) on HepG2: 76.4%
[2]; 100 μM
  decrease of cell surface α2,6-sialoglyconjugates of HepG2 cells: about 60%
  Cell surface α2,6-sialoglycoconjugates (%) on HepG2: 41.4%
[3]
  growth of human breast cancer MCF7 cells (in words): inhibited the growth
fucosyltransferase
  inhibition of fucosyltransferase (in words): not for fucosyltransferase
sialidase; Table 3
  inhibition of sialidase (in words): did not inhibit
sialidase; soyasaponin I, control 100
  Relative Activity (%): 142.0%
[4]; 5 μM
  Cell surface α2,3-sialoglycoconjugates (%) on MCF7: 99.5%
[4]; 25 μM
  Cell surface α2,3-sialoglycoconjugates (%) on MCF7: 68.0%
[4]; 50 μM
  Cell surface α2,3-sialoglycoconjugates (%) on MCF7: 56.8%
[4]; 100 μM
  decrease of the α2,3-sialoglyconjugates of MCF7 cells: about 80%
  Cell surface α2,3-sialoglycoconjugates (%) on MCF7: 19.8%
